The results in this text go back to ChEMBL document CHEMBL5233207, “Medicinal chemistry of the myeloid C-type lectin receptors Mincle, Langerin, and DC-SIGN” (RSC Med Chem, 2021).

Counter-ions that a name gives are not always drawn.

Test [1] has as its target T1, C-type lectin domain family 4 member M (Homo sapiens) (UniProt Q9H2X3).
T1 sequence (whole entry): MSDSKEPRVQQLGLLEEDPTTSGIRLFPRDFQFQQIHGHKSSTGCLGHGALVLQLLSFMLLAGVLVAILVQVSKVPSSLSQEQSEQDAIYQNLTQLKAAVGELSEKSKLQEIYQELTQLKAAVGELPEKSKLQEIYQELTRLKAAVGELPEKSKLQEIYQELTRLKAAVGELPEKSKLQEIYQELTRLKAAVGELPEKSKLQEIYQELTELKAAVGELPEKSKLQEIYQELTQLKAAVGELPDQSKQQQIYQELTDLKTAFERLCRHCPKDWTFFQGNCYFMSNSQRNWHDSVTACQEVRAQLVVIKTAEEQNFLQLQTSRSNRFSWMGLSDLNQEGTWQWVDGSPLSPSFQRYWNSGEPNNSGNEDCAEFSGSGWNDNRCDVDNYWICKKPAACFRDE
Nature of the test: Inhibition of DC-SIGN (unknown origin)- mediated fluorescent probe binding at 1 mM relative to control.

Test [2] concerns the target T1, C-type lectin domain family 4 member M (Homo sapiens). The experiment in a line: Inhibition of DC-SIGN (unknown origin)- mediated fluorescent probe binding at 0.1 mM relative to control.
Test [3] has as its target C-type lectin domain family 4 member K (Homo sapiens, UniProt Q9UJ71). Nature of the test: Binding affinity to Langerin (unknown origin) by [19F] R2-filtered NMR assay.
The nature of test [4]: Inhibition of DC-SIGN (unknown origin)/ SARS CoV-2 spike glycoprotein interaction.
In test [5] the test system is Human immunodeficiency virus 1. Nature of the test: Antiviral activity against HIV-1 in human CD4+Th cells expressing DC-SIGN assessed as inhibition of viral infection. The test is classed as functional, organism-based. To be noted: Human immunodeficiency virus 1, CD4+ve Th.
For the next test, the system named is Ebolavirus. The experiment in a line: Antiviral activity against envelope pseudotyped Ebola virus in human Jurkat cells expressing DC-SIGN assessed as inhibition of viral infection. The test is classed as functional, organism-based.
The target in test [6] is T2, C-type lectin domain family 4 member K (Mus musculus, UniProt Q8VBX4).
T2 sequence (Q8VBX4 whole entry): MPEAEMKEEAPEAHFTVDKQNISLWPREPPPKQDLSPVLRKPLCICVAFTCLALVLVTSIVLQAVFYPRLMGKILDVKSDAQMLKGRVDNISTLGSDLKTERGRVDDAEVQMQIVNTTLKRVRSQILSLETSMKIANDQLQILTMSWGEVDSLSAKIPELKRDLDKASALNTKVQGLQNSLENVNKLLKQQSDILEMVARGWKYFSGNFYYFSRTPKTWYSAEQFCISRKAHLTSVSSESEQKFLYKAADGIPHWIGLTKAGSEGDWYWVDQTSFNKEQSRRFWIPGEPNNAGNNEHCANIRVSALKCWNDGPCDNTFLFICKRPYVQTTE
The experiment in a line: Inhibition of mannan binding to mouse Langerin extracellular domain by ELLA assay.

Test [7] has as its target T2, C-type lectin domain family 4 member K. The experiment in a line: Inhibition of mannan binding to mouse Langerin extracellular domain assessed as apparent dissociation constant by ELLA assay. The settings on record: read-out: Kd(app).

Usually inhibition stands for how much of the control response was suppressed. High values mean a response far below the control, low ones a response near the control. The Ki is the equilibrium dissociation constant of an inhibitor or competing ligand from its target. Low values mean a stronger hold on the target, high ones a looser hold on the target. Broadly, the IC50 is the concentration needed to halve the response being measured.

Sequence of C-type lectin domain family 4 member K (Homo sapiens, UniProt Q9UJ71) (Q9UJ71 whole entry, the tested form may be a part): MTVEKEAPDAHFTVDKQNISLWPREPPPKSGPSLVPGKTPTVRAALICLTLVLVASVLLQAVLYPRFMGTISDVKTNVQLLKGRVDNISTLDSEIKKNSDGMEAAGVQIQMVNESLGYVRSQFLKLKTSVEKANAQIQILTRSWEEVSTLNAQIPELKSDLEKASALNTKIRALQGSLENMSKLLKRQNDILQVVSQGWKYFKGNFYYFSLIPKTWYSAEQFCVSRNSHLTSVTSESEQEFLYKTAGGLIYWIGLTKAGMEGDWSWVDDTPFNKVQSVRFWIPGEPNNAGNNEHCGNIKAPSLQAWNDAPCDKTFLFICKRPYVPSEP

In the case of `NS(=O)(=O)c1ccc(CCCC2Nc3ccc(C(=O)N4CCN(c5ccncc5)CC4)cc3NC2=O)cc1` (stereo unspecified), the inhibition stood at 92% in test [1] and 79% in test [2].

The compound `C#CCO[C@H]1O[C@H](CO)[C@@H](O)[C@H](O)[C@@H]1NC(C)=O` came in with a Ki in test [3] of 48000 µM.

On to `CC(=O)NCCO[C@@H]1O[C@H](CO)[C@@H](O)[C@H](O)[C@H]1NS(=O)(=O)c1ccc(C)cc1`, for which the Ki in test [3] was 320 µM.

`N[C@H]1C(O)O[C@H](CO)[C@@H](O)[C@@H]1O` (stereo partly specified) [GLUCOSAMINE SULFATE] showed a Ki in test [3] of 1400 µM.

In test [3], `C#CCO[C@H]1O[C@H](CO)[C@@H](O)[C@H](O)[C@@H]1NC(=O)Cc1nnn[nH]1` gave a Ki of 7600 µM.

For `NC(=O)c1ccc(CCCC2Nc3ccc(C(=O)N4CCN(c5ncccn5)CC4)cc3NC2=O)cc1` (stereo unspecified), the inhibition in test [1] was found to be 77%; in test [2] it was 53%.

With `C#CCO[C@H]1O[C@H](CO)[C@@H](O)[C@H](O)[C@@H]1NC(=O)CS(=O)(=O)O`, the affinity in test [3], expressed as Ki, was 1300 µM.

The compound `O=C(NCc1ccc(CO)cc1)[C@H]1C[C@H](OCCn2cc(COCCC(CCOCCn3cc(-c4cc(OCCOCCO)c(C#Cc5cc(OCCOCCO)c(C#Cc6cc(OCCOCCO)c(-c7cn(CCOCCC(CCOCc8cn(CCO[C@H]9C[C@H](C(=O)NCc%10ccc(CO)cc%10)[C@@H](C(=O)NCc%10ccc(CO)cc%10)C[C@@H]9O[C@H]9O[C@H](CO)[C@@H](O)[C@H](O)[C@@H]9O)nn8)(CCOCc8cn(CCO[C@H]9C[C@H](C(=O)NCc%10ccc(CO)cc%10)[C@@H](C(=O)NCc%10ccc(CO)cc%10)C[C@@H]9O[C@H]9O[C@H](CO)[C@@H](O)[C@H](O)[C@@H]9O)nn8)CCOCc8cn(CCO[C@H]9C[C@H](C(=O)NCc%10ccc(CO)cc%10)[C@@H](C(=O)NCc%10ccc(CO)cc%10)C[C@@H]9O[C@H]9O[C@H](CO)[C@@H](O)[C@H](O)[C@@H]9O)nn8)nn7)cc6OCCOCCO)cc5OCCOCCO)cc4OCCOCCO)nn3)(CCOCc3cn(CCO[C@H]4C[C@H](C(=O)NCc5ccc(CO)cc5)[C@@H](C(=O)NCc5ccc(CO)cc5)C[C@@H]4O[C@H]4O[C@H](CO)[C@@H](O)[C@H](O)[C@@H]4O)nn3)CCOCc3cn(CCO[C@H]4C[C@H](C(=O)NCc5ccc(CO)cc5)[C@@H](C(=O)NCc5ccc(CO)cc5)C[C@@H]4O[C@H]4O[C@H](CO)[C@@H](O)[C@H](O)[C@@H]4O)nn3)nn2)[C@@H](O[C@H]2O[C@H](CO)[C@@H](O)[C@H](O)[C@@H]2O)C[C@@H]1C(=O)NCc1ccc(CO)cc1` displayed an IC50 in test [4] of 9.6 µM.

`COC(=O)[C@H]1C[C@H](OCCN)[C@@H](O[C@H]2O[C@H](CO)[C@@H](O)[C@H](O)[C@@H]2O)C[C@@H]1C(=O)OC`: the IC50 in test [5] is 0.024 µM; in the test on Ebolavirus (jurkat) it was less than 0.06 µM.

Regarding `[N-]=[N+]=NCCO[C@H]1C[C@H](C(=O)NCc2ccc(CO)cc2)[C@@H](C(=O)NCc2ccc(CO)cc2)C[C@@H]1O[C@H]1O[C@H](CO)[C@@H](O)[C@H](O)[C@@H]1O`, the IC50 in test [5] was 0.024 µM; in the test with Ebolavirus (Orthoebolavirus, Jurkat), less than 0.06 µM.

In test [6], `O=C(NCCc1cn2c(n1)SCC2)c1cnc2sccn2c1=O` showed an IC50 of 50 µM. Moreover, in test [7], the Kd was determined as 450 µM.
